pIC50: −log10 of the molar value.
Experiments:
[1] = molecular target: HEK-293 cells stably expressing the subunit α5 of the human GABAA receptor, and also the subunits beta2 (short) and gamma2 (long) (Homo sapiens (Human), UniProt P18507+P31644+P47870); experiment: GABAA receptor activity study (membrane potential, FMP marker, FlexStation3); format: cell-based; details: 40 min preincubation, then GABA, read-out: alpha5 IC50
Experimental: (§1) The compounds are tested on HEK-293 (Human Embryonic Kidney) cells stably expressing the subunit α5 of the human GABAA receptor, and also the subunits beta2 (short) and gamma2 (long). The cells are maintained in the presence of a selection of three antibiotics—neomycin, zeocin and puromycin—in a Dulbecco medium (DMEM) containing 10% (v/v) foetal bovine serum. On the day before the experiment, the cells are transferred to 96-well plates (in a density of 50,000 cells/well). The cells are then preincubated for 40 minutes with the compounds under test and are treated with GABA. The membrane potential is monitored using a blue FMP marker (Molecular Devices), following the instructions of the manufacturer. The responses are recorded for 120 seconds on a FlexStation3 plate reader (Molecular Devices, USA). The IC50 values of the tested compounds are determined by curve adjustment obtained by non-linear regression using SoftMax Pro software (Molecular Devices, USA).

[2] = molecular target: HEK-293 cells stably expressing the subunit α5 of the human GABAA receptor, and also the subunits beta2 (short) and gamma2 (long) (Homo sapiens (Human), UniProt P31644); experiment: as above; format: cell-based; details: 40 min preincubation, then GABA, read-out: alpha5 IC50
Experimental: as §1

male NMRI mice [3] = experiment: Test for recognition of new objects, in the mouse; format: in vivo; details: i.p.
Experimental: This test measures non-spatial working memory in the rodent. It is based on the natural tendency of the animal to spend more time exploring a new object than a familiar object.
On Day 0 (familiarisation phase), male NMRI mice are placed in a black PVC box (32×45×27 cm) without an object, for 2.5 minutes. On the first day the mice are free to explore two identical objects for 3 minutes (acquisition phase). On the second day one of the objects is replaced by a new object and the duration of exploration is timed for each object over a period of 4 minutes (retention phase). Pretreatment with the compounds of the invention is carried out by the i.p. route on the day of the acquisition phase. The duration of exploration is measured by the TSE System software (TSE System GmbH, Bad Homburg, Germany),

rats = experiment: Radial maze test in the rat (ketamine-induced memory deficit); format: in vivo; details: dose-dependent from 0.3 to 3 mg/kg p.o., ketamine 10 mg/kg i.p., FIG. 4
From the text: This test is widely used to evaluate working and referential memory in the rodent. The apparatus consists of a small central octagonal platform from which there radiate eight different, equally spaced corridors. At the end of each corridor there is food, which is not visible from the central platform. In the experiment, all the corridors contain a reward and the animal has to visit each of the corridors just once. Each further visit is considered an error.
On the first day of the experiment the rats are deprived of food for 24 hours. Learning starts on the following day. The rats are placed on the central platform of the maze, each of the eight corridors having been provided with food. The animals are free to eat the food in the eight corridors. If a rat has not eaten all of the food within 20 minutes, it is withdrawn from the maze.
The experiments are continued once a day until the animals attain the determined objective, namely obtaining a total number of errors—that is to say, of any further visits to a corridor—of less than 3. These animals are included in the rest of the study. On the last day, the selected rats are treated p.o. with ketamine (10 mg/kg i.p.) co-administered either with a carrier or with a compound of the invention. The tests start 120 minutes after administration. Each test lasts a maximum of 5 minutes.

male NMRI mice [4] = experiment: Occlusion of the middle cerebral artery (MCA) in the mouse; format: in vivo; details: doses of 1, 3 and 10 mg/kg i.p., 30 minutes after MCA occlusion, FIG. 5
Experimental: Permanent focal cerebral ischaemia is produced by electrocoagulation of the left MCA (according to the method of Welsh F A et al., J. Neurochem. 1987, 49, 846-851). Male NMRI mice are anaesthetised using 2,2,2-tribromoethanol (500 mg/kg i.p., 20 ml/kg). An incision is made in the left temporo-parietal region of the head between the orbit and the ear. The temporal muscle is then incised and folded back to expose the skull. A small trepanation hole is drilled in the outer lateral part of the skull just to the level of the MCA, and the trunk of the MCA is then occluded by electrocoagulation.
The compounds of the invention are administered by the i.p. route 30 minutes after occlusion of the MCA. Two days later, the animals are deeply anaesthetised using sodium pentobarbital (60 mg/kg i.p., 10 ml/kg) perfused through the heart with a 4% 2,3,5-triphenyltetrazolium chloride solution. The animals are finally decapitated, and the brains are extracted and placed for at least 24 hours in a saline solution containing 8% formaldehyde. Measurement of the necrosed surface area is determined using an image analysis system (DigiCell for Windows 4.0).

HEK-293 cells stably expressing the subunit α5 of the human GABAA receptor, and also the subunits beta2 (short) and gamma2 (long) (Homo sapiens (Human), UniProt P18507+P31644+P47870), sequence (P31644 32-462): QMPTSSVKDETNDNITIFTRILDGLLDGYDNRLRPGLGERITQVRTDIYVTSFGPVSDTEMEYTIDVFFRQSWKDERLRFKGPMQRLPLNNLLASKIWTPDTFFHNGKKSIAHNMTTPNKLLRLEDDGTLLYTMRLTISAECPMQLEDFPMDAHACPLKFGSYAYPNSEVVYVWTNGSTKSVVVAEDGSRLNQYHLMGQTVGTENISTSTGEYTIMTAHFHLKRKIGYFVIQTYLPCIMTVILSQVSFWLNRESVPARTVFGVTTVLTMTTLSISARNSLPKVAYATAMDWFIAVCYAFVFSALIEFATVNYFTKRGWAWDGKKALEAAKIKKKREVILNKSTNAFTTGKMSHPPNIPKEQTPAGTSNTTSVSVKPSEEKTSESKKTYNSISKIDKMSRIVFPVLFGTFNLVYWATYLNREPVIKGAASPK
HEK-293 cells stably expressing the subunit α5 of the human GABAA receptor, and also the subunits beta2 (short) and gamma2 (long) (Homo sapiens (Human), UniProt P18507+P31644+P47870), sequence (P47870 25-512 partner): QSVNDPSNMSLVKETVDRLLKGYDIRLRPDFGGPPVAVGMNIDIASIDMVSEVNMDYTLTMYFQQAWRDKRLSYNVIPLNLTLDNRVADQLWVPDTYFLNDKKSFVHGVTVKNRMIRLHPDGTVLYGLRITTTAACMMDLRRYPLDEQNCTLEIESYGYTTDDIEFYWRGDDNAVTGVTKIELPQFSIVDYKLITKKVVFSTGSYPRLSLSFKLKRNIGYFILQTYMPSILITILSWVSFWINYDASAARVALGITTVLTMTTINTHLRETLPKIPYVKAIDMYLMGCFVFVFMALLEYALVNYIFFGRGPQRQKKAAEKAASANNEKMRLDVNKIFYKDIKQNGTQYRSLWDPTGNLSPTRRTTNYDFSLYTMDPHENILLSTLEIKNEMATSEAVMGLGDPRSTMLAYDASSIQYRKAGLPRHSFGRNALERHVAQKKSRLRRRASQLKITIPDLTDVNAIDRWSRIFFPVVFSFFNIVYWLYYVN
HEK-293 cells stably expressing the subunit α5 of the human GABAA receptor, and also the subunits beta2 (short) and gamma2 (long) (Homo sapiens (Human), UniProt P18507+P31644+P47870), sequence (P18507 40-475 partner): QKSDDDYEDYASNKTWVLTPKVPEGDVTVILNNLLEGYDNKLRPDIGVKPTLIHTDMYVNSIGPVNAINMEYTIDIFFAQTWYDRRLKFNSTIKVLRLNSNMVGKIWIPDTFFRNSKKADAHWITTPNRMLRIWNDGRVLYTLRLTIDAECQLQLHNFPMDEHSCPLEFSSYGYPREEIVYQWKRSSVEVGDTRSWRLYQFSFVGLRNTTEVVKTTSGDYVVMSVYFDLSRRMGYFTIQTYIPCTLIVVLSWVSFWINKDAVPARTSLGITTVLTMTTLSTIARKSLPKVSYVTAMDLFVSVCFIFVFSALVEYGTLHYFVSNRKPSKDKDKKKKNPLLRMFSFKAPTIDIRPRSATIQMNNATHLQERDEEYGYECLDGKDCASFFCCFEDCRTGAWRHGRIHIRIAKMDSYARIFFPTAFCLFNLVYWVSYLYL
HEK-293 cells stably expressing the subunit α5 of the human GABAA receptor, and also the subunits beta2 (short) and gamma2 (long) (Homo sapiens (Human), UniProt P31644), sequence (P31644 32-462): as the sequence (P31644 32-462) above
HEK-293 cells stably expressing the subunit α5 of the human GABAA receptor, and also the subunits beta2 (short) and gamma2 (long) (Homo sapiens (Human), UniProt P31644), sequence (P47870 25-512 partner): as the sequence (P47870 25-512 partner) above
HEK-293 cells stably expressing the subunit α5 of the human GABAA receptor, and also the subunits beta2 (short) and gamma2 (long) (Homo sapiens (Human), UniProt P31644), sequence (P18507 40-475 partner): as the sequence (P18507 40-475 partner) above

SMILES	pIC50 [1]	pIC50 [2]	further results
CC1=NN=C(c2ccc3ncccc3c2)c2cc3oc(=O)[nH]c3cc2C1 [Example 5, 8-methyl-5-(6-quinolyl)-1,9-dihydro-2H-[1,3]oxazolo[4,5-h][2,3]-benzodiazepin-2-one]	6.37	–	–
CC1=NN=C(c2cc3ccccc3s2)c2cc3oc(=O)[nH]c3cc2C1 [Example 6, 5-(1-benzothien-2-yl)-8-methyl-1,9-dihydro-2H-[1,3]oxazolo[4,5-h][2,3]benzodiazepin-2-one]	–	6.89	–
CC1=NN=C(c2sc3cccc(C(F)(F)F)c3c2Cl)c2cc3oc(=O)[nH]c3cc2C1 [Example 9, 5-[3-chloro-4-(trifluoromethyl)-1-benzothien-2-yl]-8-methyl-1,9-dihydro-2H-[1,3]oxazolo[4,5-h][2,3]benzodiazepin-2-one]	–	6.60	–
CC1=NN=C(c2cc3c(F)cccc3s2)c2cc3oc(=O)[nH]c3cc2C1 [Example 21, 5-(4-fluoro-1-benzothien-2-yl)-8-methyl-1,9-dihydro-2H-[1,3]oxazolo[4,5-h][2,3]benzodiazepin-2-one]	–	6.70	procognitive effect in the object recognition model (male NMRI mice [3]; doses of 0.01, 0.03 and 0.1 mg/kg, FIG. 1): significant procognitive effect; reversal of ketamine-induced referential memory deficit (rats): significantly reverses the ketamine-induced referential memory deficit; inhibition of cerebral damage (necrosed surface area) (male NMRI mice [4]): significantly inhibits cerebral damage
CC1=NN=C(c2cc3c(C(F)(F)F)cccc3s2)c2cc3oc(=O)[nH]c3cc2C1 [Example 31, 8-methyl-5-[4-(trifluoromethyl)-1-benzothien-2-yl]-1,9-dihydro-2H-[1,3]oxazolo[4,5-h][2,3]benzodiazepin-2-one]	–	6.30	procognitive effect in the object recognition model (male NMRI mice [3]; dose of 1 mg/kg, FIG. 2): significant procognitive effect
CC1=NN=C(c2cc3cc(Cl)ccc3s2)c2cc3oc(=O)[nH]c3cc2C1 [Example 32, 5-(5-chloro-1-benzothien-2-yl)-8-methyl-1,9-dihydro-2H-[1,3]-oxazolo[4,5-h][2,3]benzodiazepin-2-one]	6.76	–	–
CC1=NN=C(c2cc3ccc(F)cc3s2)c2cc3oc(=O)[nH]c3cc2C1 [Example 36, 5-(6-fluoro-1-benzothien-2-yl)-8-methyl-1,9-dihydro-2H-[1,3]oxazolo[4,5-h][2,3]benzodiazepin-2-one]	–	7.00	procognitive effect in the object recognition model (male NMRI mice [3]; dose of 10 mg/kg, FIG. 3): significant precognitive effect
CC1=NN=C(c2cc3cccc(F)c3s2)c2cc3oc(=O)[nH]c3cc2C1 [Example 40, 5-(7-fluoro-1-benzothien-2-yl)-8-methyl-1,9-dihydro-2H-[1,3]-oxazolo[4,5-h][2,3]benzodiazepin-2-one]	6.64	–	–

From patent US8778932B2, “Dihydro-oxazolobenzodiazepinone compounds, a process for there preparation and pharmaceutical compositions containing them” (Les Laboratoires Servier, priority 2011, dated 2014)
